Test results: US20210238170A1, “5,5-Difluoro- and 5-Fluoro-5-Methyl-C-Glycoside Derivatives Useful As Dual SGLT1 / SGLT2 Modulators” (Janssen Pharmaceutica NV, priority 2018, published 2021)
Like-named read-outs stand apart in the source and are kept apart here.

Tests used:
human SGLT1 = target: T1, human SGLT1 (Homo sapiens, UniProt P13866); test: SGLT1 in vitro assay: Na-dependent 14C-AMG uptake in CHO-K1 cells stably expressing human SGLT1; assay type: cell-based; conditions: for inhibition at 0.3 µM: read-out: SGLT1 % Inh @ 0.3 μM
T1 construct: expressed in transfected cells
T1 sequence (P13866 1-664): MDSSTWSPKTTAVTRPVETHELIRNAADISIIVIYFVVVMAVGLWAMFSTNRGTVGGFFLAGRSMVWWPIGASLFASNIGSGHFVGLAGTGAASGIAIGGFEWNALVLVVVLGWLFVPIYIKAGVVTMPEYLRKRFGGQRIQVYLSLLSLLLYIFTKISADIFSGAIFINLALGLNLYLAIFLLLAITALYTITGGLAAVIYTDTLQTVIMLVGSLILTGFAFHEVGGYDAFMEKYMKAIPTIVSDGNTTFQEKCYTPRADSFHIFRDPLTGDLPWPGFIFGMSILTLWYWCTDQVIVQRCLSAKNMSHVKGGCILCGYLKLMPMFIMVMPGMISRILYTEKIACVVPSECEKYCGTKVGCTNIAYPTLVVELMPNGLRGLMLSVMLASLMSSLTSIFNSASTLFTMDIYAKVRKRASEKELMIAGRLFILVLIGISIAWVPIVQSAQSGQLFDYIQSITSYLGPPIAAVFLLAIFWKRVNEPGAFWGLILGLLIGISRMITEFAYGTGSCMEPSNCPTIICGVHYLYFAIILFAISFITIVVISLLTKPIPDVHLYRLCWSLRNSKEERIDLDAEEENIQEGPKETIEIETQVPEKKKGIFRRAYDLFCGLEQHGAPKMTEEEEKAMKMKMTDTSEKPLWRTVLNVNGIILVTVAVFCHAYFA
Summary of the method: (§1)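 Sodium-dependent uptake of 14C-α-methyl-glucopyranoside ([…]) over 2 h at 37°C was counted by scintillation in stable human SGLT2- or SGLT1-CHO-K1 lines pretreated with 10 mM Na-butyrate. Compounds at 0.001–10 μM were preincubated for 10 min in pH 7.4 buffer with 137 mM NaCl; output is %-inhibition or IC50.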

human SGLT2 = target: T2, human SGLT2 (Homo sapiens, UniProt P31639); test: SGLT2 in vitro assay: Na-dependent 14C-AMG uptake in CHO-K1 cells stably expressing human SGLT2; assay type: cell-based; conditions: for inhibition at 0.3 µM: read-out: SGLT2 % Inh @ 0.3 μM
T2 construct: expressed in transfected cells
T2 sequence (P31639 1-672): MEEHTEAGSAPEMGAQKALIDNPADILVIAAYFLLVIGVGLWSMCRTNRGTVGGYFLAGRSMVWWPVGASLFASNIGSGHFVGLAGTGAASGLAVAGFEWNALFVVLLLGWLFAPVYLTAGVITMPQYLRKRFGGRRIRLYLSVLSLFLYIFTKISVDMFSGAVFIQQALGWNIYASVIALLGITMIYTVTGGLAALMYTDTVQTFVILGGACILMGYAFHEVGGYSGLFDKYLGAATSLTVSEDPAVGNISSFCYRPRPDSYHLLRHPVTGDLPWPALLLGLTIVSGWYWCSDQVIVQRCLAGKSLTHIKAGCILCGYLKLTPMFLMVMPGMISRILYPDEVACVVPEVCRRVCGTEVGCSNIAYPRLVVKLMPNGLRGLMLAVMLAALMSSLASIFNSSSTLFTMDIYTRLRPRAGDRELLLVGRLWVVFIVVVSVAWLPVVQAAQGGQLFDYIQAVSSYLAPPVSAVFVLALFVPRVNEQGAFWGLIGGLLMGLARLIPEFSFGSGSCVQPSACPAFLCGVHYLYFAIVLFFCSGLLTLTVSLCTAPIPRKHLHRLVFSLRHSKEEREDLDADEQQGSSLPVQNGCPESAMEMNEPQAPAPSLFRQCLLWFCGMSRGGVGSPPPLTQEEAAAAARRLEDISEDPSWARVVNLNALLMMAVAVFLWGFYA
Summary of the method: as §1

[1] = @ 0.3 μM, CHO-K1 cells stably expressing human SGLT1, 14C-AMG uptake
[2] = CHO-K1 cells stably expressing human SGLT1, 14C-AMG uptake, compounds of formula (I) where R0 is fluoro
[3] = @ 0.3 μM, CHO-K1 cells stably expressing human SGLT2, 14C-AMG uptake
[4] = CHO-K1 cells stably expressing human SGLT2, 14C-AMG uptake, compounds of formula (I) where R0 is fluoro
[5] = 0.3 μM, CHO-K1 cells expressing human SGLT1
[6] = 0.3 μM, CHO-K1 cells expressing human SGLT2

| Compound | inhibition at 0.3 µM (human SGLT1; [1]) [%] | IC50 (human SGLT1; [2]) [nM] | inhibition at 0.3 µM (human SGLT2; [3]) [%] | IC50 (human SGLT2; [4]) [nM] | SGLT1 % Inh @ 0.3 μM (human SGLT1; [1]) [%] | SGLT2 % Inh @ 0.3 μM (human SGLT2; [3]) [%] | other results |
| --- | --- | --- | --- | --- | --- | --- | --- |
| COc1c([C@@H]2O[C@H](CO)C(F)(F)[C@H](O)[C@H]2O)cc(Cc2ccc3c(c2)OCCO3)c2c1CCO2 [Compound 76] | 44.3 | 302 | 84.4 | 5 | – | – | – |
| COc1cc(C)c(Cc2ccc(OC(F)(F)F)cc2)cc1[C@@H]1O[C@H](CO)C(F)(F)[C@H](O)[C@H]1O [Compound 101] | – | – | – | – | 30.3 | 77.2 | – |
| Cc1cc(O)c([C@@H]2O[C@H](CO)C(F)(F)[C@H](O)[C@H]2O)cc1Cc1ccc(-c2ccc(F)cc2)s1 [Compound 68] | – | – | – | – | 26.6 | 69.5 | – |
| C[C@]1(F)[C@H](O)[C@@H](O)[C@H](c2cc3c(c(Cc4ccc5c(c4)OCCO5)c2)OCC3)O[C@@H]1CO [Compound 19] | – | – | – | – | – | – | SGLT1 % Inh @ 0.3 μM (human SGLT1; [5]): 9.3%; SGLT2 % Inh @ 0.3 μM (human SGLT2; [6]): 73.5% |
| COc1cc(O)c([C@@H]2O[C@H](CO)C(F)(F)[C@H](O)[C@H]2O)cc1Cc1cc2ccccc2s1 [Compound 31, (2S,3R,4R,6R)-2-[5-(benzothiophen-2-ylmethyl)-2-hydroxy-4-methoxy-phenyl]-5,5-difluoro-6-(hydroxymethyl)tetrahydropyran-3,4-diol] | – | 165 | – | 24.1 | – | – | – |
| Cc1ccc([C@@H]2O[C@H](CO)C(F)(F)[C@H](O)[C@H]2O)cc1Cc1cc2c(s1)CCN(C(=O)C1CCCC1)C2 [Compound 84] | – | – | – | – | 28.5 | 54.4 | – |
| COc1cc(O)c([C@@H]2O[C@H](CO)C(F)(F)[C@H](O)[C@H]2O)cc1Cc1ccc2c(c1)CCO2 [Compound 62, (2S,3R,4R,6R)-2-[5-(2,3-dihydrobenzofuran-5-ylmethyl)-2-hydroxy-4-methoxy-phenyl]-5,5-difluoro-6-(hydroxymethyl)tetrahydropyran-3,4-diol] | 40.9 | 708 | 79.6 | 17.3 | – | – | – |
| COc1cc(C)c(Cc2cc3cc(F)ccc3s2)cc1[C@@H]1O[C@H](CO)C(F)(F)[C@H](O)[C@H]1O [Compound 53] | – | – | – | – | 0.0 | 87.1 | – |
| COc1cc(C)c(Cc2ccc(OCF)cc2)cc1[C@@H]1O[C@H](CO)[C@@](C)(F)[C@H](O)[C@H]1O [Compound 24] | – | – | – | – | – | – | SGLT1 % Inh @ 0.3 μM (human SGLT1; [5]): 29.6%; SGLT2 % Inh @ 0.3 μM (human SGLT2; [6]): 77.1% |
| COc1cc(O)c([C@@H]2O[C@H](CO)C(F)(F)[C@H](O)[C@H]2O)cc1Cc1ccc2c(c1)OCCO2 [Compound 54, (2S,3R,4R,6R)-2-[5-(2,3-dihydro-1,4-benzodioxin-6-ylmethyl)-2-hydroxy-4-methoxy-phenyl]-5,5-difluoro-6-(hydroxymethyl)tetrahydropyran-3,4-diol] | 41.8 | 895 | 52.8 | 26.3 | – | – | – |
| CCOc1ccc(Cc2cc([C@@H]3O[C@H](CO)C(F)(F)[C@H](O)[C@H]3O)c(OC)cc2C)cc1 [Compound 49] | – | – | – | – | 23.2 | 79.2 | – |
| C[C@]1(F)[C@H](O)[C@@H](O)[C@H](c2cc(Cc3cc4ccccc4s3)c(Cl)cc2O)O[C@@H]1CO [Compound 10, (2S,3R,4R,5S,6R)-2-[5-(benzothiophen-2-ylmethyl)-4-chloro-2-hydroxy-phenyl]-5-fluoro-6-(hydroxymethyl)-5-methyl-tetrahydropyran-3,4-diol] | – | – | – | – | – | – | inhibition at 0.3 µM (human SGLT1; [5]): 41.7%; IC50 (human SGLT1; CHO-K1 cells expressing human SGLT1, 14C-AMG uptake): 287 nM; inhibition at 0.3 µM (human SGLT2; [6]): 87.8%; IC50 (human SGLT2; CHO-K1 cells expressing human SGLT2, 14C-AMG uptake): 10.2 nM |
| COc1cc(C)c(Cc2cc3c(s2)CCN(C(=O)N2CCCC2)C3)cc1[C@@H]1O[C@H](CO)C(F)(F)[C@H](O)[C@H]1O [Compound 78] | – | – | – | – | 28.0 | 71.5 | – |
| Cc1cnc(C(=O)N2CCc3sc(Cc4cc([C@@H]5O[C@H](CO)C(F)(F)[C@H](O)[C@H]5O)c(O)cc4C)cc3C2)s1 [Compound 83] | 43.3 | 449 | 85.4 | 9.7 | – | – | – |

The next lines start with results.

| inhibition at 0.3 µM (human SGLT1; [1]) [%] | IC50 (human SGLT1; [2]) [nM] | inhibition at 0.3 µM (human SGLT2; [3]) [%] | IC50 (human SGLT2; [4]) [nM] | SGLT1 % Inh @ 0.3 μM (human SGLT1; [1]) [%] | SGLT2 % Inh @ 0.3 μM (human SGLT2; [3]) [%] | Compound | other results |
| --- | --- | --- | --- | --- | --- | --- | --- |
| 84.4 | 72 | 72.5 | 3.1 | – | – | CCc1cc(O)c([C@@H]2O[C@H](CO)C(F)(F)[C@H](O)[C@H]2O)cc1Cc1ccc(C2CC2)cc1 [Compound 150] | – |
| – | – | – | – | 38.9 | 91.8 | OC[C@H]1O[C@@H](c2cc(Cc3ccc(OC(F)(F)F)cc3)c(Cl)cc2O)[C@H](O)[C@@H](O)C1(F)F [Compound 105] | – |
| 75.5 | 158 | 90.3 | 1 | – | – | Cc1cc(O)c([C@@H]2O[C@H](CO)C(F)(F)[C@H](O)[C@H]2O)cc1Cc1ccc(C2CC2)cc1 [Compound 124, (2S,3R,4R,6R)-2-(5-(4-cyclopropylbenzyl)-2-hydroxy-4-methylphenyl)-5,5-difluoro-6-(hydroxymethyl)-tetrahydro-2H-pyran-3,4-diol] | – |
| – | – | – | – | 30.6 | 75.0 | COc1cc(OC)c([C@@H]2O[C@H](CO)C(F)(F)[C@H](O)[C@H]2O)cc1Cc1ccc(C2CC2)cc1 [Compound 144] | – |
| 87.8 | 35 | 87.6 | 2.5 | – | – | Cc1ccc(Cc2cc([C@@H]3O[C@H](CO)C(F)(F)[C@H](O)[C@H]3O)c(O)cc2Cl)s1 [Compound 161] | – |
| – | – | – | – | 12.1 | 78.9 | COc1cc(C#N)c(Cc2ccc(C3CC3)cc2)cc1[C@@H]1O[C@H](CO)C(F)(F)[C@H](O)[C@H]1O [Compound 169] | – |
| 62.6 | 234 | 69.4 | 3 | – | – | COc1cc(O)c([C@@H]2O[C@H](CO)C(F)(F)[C@H](O)[C@H]2O)cc1Cc1ccc(OCF)cc1 [Compound 142] | – |
| – | – | – | – | 22.9 | 83.7 | CCc1ccc(Cc2cc([C@@H]3O[C@H](CO)C(F)(F)[C@H](O)[C@H]3O)c(OC)cc2CC)cc1 [Compound 130] | – |
| 86.4 | 12 | 82.4 | 0.5 | – | – | Cc1ccc(Cc2cc([C@@H]3O[C@H](CO)C(F)(F)[C@H](O)[C@H]3O)c(O)cc2Cl)cc1 [Compound 171, (2S,3R,4R,6R)-2-(4-chloro-2-hydroxy-5-(4-methylbenzyl)phenyl)-5,5-difluoro-6-(hydroxymethyl)-tetrahydro-2H-pyran-3,4-diol] | – |
| 50.8 | 326 | 86.8 | 0.5 | – | – | COc1cc(Cl)c(Cc2ccc3c(c2)OCC3)cc1[C@@H]1O[C@H](CO)C(F)(F)[C@H](O)[C@H]1O [Compound 115] | – |
| 79.5 | 120 | 88.7 | 7.7 | – | – | CCc1ccc(Cc2cc([C@@H]3O[C@H](CO)C(F)(F)[C@H](O)[C@H]3O)c(O)cc2CC)cc1 [Compound 128] | – |
| – | – | – | – | 24.9 | 79.0 | COc1cc(O)c([C@@H]2O[C@H](CO)C(F)(F)[C@H](O)[C@H]2O)cc1Cc1ccc(OC(F)(F)F)cc1 [Compound 119] | – |
